Laboratory results reported in patent US20120034193A1, “TREATMENT OF NEUROTROPHIC FACTOR MEDIATED DISORDERS” (priority 2009, published 2012).
Marks after values point to notes of the source that are not given here.

Assays:
[1] = target: Protein Serine/Threonine Kinase, MAP2K1 (MEK1 ) (Homo sapiens, UniProt Q02750); test: Functional assay; assay type: biochemical; conditions: smilagenin 1 μM
Description: (§1) The enzyme activity modulation was investigated using the following method: Sarsasapogenin was incubated with each enzyme plus a specific substrate for each enzyme. After the incubation period the reaction was stopped and the reduction of the specific substrate or the increase in a specific product in the absence and presence of sarsasapogenin was measured and the percent inhibition of the reaction in the presence of sarsasapogenin was calculated. The amount of enzyme used, the incubation conditions, the substrate used and the method of quantification varied depending on each specific assay.
(§2) Using the same methods as described above, the binding of smilagenin (1 μM) to the receptors listed in Table 2 below, and the effect of smilagenin on the activity of the enzymes listed in Table 2 below, were investigated.

[2] = target: Protein Serine/Threonine Kinase, MAPK3 (ERK1) (Homo sapiens, UniProt P27361); test: Functional assay; assay type: biochemical; conditions: smilagenin 1 μM
Description: as §1, §2

[3] = system: Protein Serine/Threonine Kinase, PKC, Non-Selective; test: Functional assay; assay type: biochemical, Rat; conditions: smilagenin 1 μM
Description: as §1, §2

[4] = system: GABAA Chloride Channel, TBOB; test: Binding assay; set-up: species or system Rat; conditions: smilagenin 1 μM
Description: (§3) The receptor binding was investigated using the following method: Sarsasapogenin was incubated with tissue or cell homogenate that expressed the receptor of interest and a known concentration a radiolabelled compound with affinity for the receptor of interest. After the incubation period the non-bound radiolabelled compound was removed and the amount of specific binding was quantified. The amount of specific binding in the presence and absence of sarsasapogenin were compared and the percent inhibition of the binding of the radiolabelled compound by sarsasapogenin was calculated. The source of the receptor, the incubation conditions, the radiolabelled compound used varied depending on each specific assay.
as §2

GABAA Muscimol, Central = test: Binding assay; set-up: species or system Rat; conditions: smilagenin 1 μM
Description: as §3, §2

Potassium Channel [KA] = test: Binding assay; set-up: species or system Rat; conditions: smilagenin 1 μM
Description: as §3, §2

GDNF mRNA = GDNF mRNA in rat dopaminergic neurones following exposure to MPP+; assay type: cell-based; conditions: 10 μM after MPP+ 2 μM 48 h
Description: Rat dopaminergic neurones were prepared using a slightly modified previously described method (Brouard et al., Journal of Neuroscience, 1992, 12, pp. 1409-1415). After 5 days in culture MPP^+ (2 μM), a specific dopaminergic neurotoxin, or vehicle (saline) was added for 48 h. The culture medium was then replaced with fresh medium containing smilagenin (10 μM) or vehicle (DMSO, 0.25%) and the level of GDNF mRNA in the dopaminergic neurones was assessed after 10 min and 2, 24, 48 and 72 h by rt RT-PCR.

[5] = system: Free Radical Scavenger, SOD Mimetic; test: Functional assay; assay type: biochemical, Bovine; conditions: smilagenin 1 μM
Description: as §1, §2

Functional assay = assay type: biochemical; conditions: smilagenin 1 μM
Description: as §1, §2

MPTP-lesioned macaques = test: Parkinsonian disability in MPTP-lesioned macaques; assay type: in vivo, Macaca fascicularis
Description: Nineteen female cynomolgus monkeys (Macaca fascicularis, 3.0-4.5 kg, 4-6 years old) were acclimatised to the experimental setting and procedures for 3 months and baseline behaviour was assessed in all animals. Fourteen female macaques received MPTP (0.2 mg/kg/day, s.c.) until marked, stable, parkinsonian symptoms developed. Animals (n=7/group) were randomly assigned to two groups; smilagenin (20 mg/kg/day, p.o.) or vehicle control (HPMC, 0.5% w/v containing Tween 80, 0.2% v/v).
Assessments of parkinsonian disability were made after MPTP administration and following 18 weeks of smilagenin or vehicle administration. Parkinsonian disability was evaluated by post hoc analysis of DVD-recordings by a neurologist blinded to the treatment. At the end of the study the brains were removed and the levels of unbound GDNF and BDNF in the putamen were measured using Multiplex ELISA/Aushon assays. The MPTP treated macaques used in this experiment thus provide an accepted model for Parkinson's disease and similar motor-sensory neurodegenerative conditions.

pmn mice = test: Progressive motor neuropathy (pmn) mouse model; assay type: in vivo
Description: Affected homozygous +/+ pmn (“pmn mice”) mice were obtained from a breeding colony of extra toe locus(Xt)+/+pmn double heterozygous mice maintained at Neurofit (Illkirch, France). The pmn mice were dosed by oral gavage every day, starting 10 days after birth, just after the initial symptoms of the disease manifest. Sarsasapogenin (0.03, 0.3 and 3 μg/kg/day) was administered to pmn mice as a suspension in oil (10 ml/kg). Electromyographic (EMG) recordings were performed using a standard Neuromatic 2000M electromyograph apparatus in accordance with the guidelines of the American Association of Electrodiagnostic Medicine. Standard behavioural tests (grid, rotarod and hanging tests) performed weekly from day 8 assessed the motor performances of the pmn mice.
The effect of sarsasapogenin on motor function was assessed by recording the amplitude of gastrocnemius evoked motor response (CMAP, an indirect measurement of the number of functional motor neurones).

[6] = system: phosphorylated CREB (pCREB); test: Phosphorylated CREB in CHO cells (immunoblot); assay type: cell-based, Chinese hamster; conditions: 10 μM, 24 h, control 0.729 ± 0.112
Description: The CHO were incubated with DMSO (0.5%) or sarsasapogenin (10 μM) for 24 h. The cells were then washed with cold PBS, lysed in sodium dodecyl sulfate (SDS) buffer, boiled for 5 min and the protein content measured by the Bradford method. The samples were then separated on SDS polyacrylamide gels and transferred to PVDF (Bio-Rad) membrane. After exposure for 1 h in 5% skimmed milk powder, membranes were incubated overnight at 4° C. in primary antibody: mouse pCREB (Upsdate, 1:1000) and mouse β-actin (Santa Cruz, 1:1000). The membranes were then incubated in peroxidase conjugated secondary antibody (Wuhan Boster Biology Technology, China. 1:2000) for 1 h at room temperature and developed with ECL reagents (Pierce). Membranes were stripped by incubating in 2-mercaptoethanol (100 mM), SDS (2%), Tris HCl (62.5 mM) at pH 6.8 and 50° C. for 30 min Densitometric quantification of immunostaining was performed using Image J analysis system with an image analyzer (Gel Doc 2000, Bio-Rad). The relative amount of immunostaining of each band of pCREB was normalised to the β-actin band run in the same experiment and expressed as arbitrary units.

Oestrogen = test: Receptor binding assay; set-up: species or system Bovine; conditions: sarsasapogenin 10 μM
Description: as §3

Progesterone = test: Receptor binding assay; set-up: species or system Bovine; conditions: sarsasapogenin 10 μM
Description: as §3

Chain of Protein Serine/Threonine Kinase, MAP2K1 (MEK1 ) (Q02750 whole entry): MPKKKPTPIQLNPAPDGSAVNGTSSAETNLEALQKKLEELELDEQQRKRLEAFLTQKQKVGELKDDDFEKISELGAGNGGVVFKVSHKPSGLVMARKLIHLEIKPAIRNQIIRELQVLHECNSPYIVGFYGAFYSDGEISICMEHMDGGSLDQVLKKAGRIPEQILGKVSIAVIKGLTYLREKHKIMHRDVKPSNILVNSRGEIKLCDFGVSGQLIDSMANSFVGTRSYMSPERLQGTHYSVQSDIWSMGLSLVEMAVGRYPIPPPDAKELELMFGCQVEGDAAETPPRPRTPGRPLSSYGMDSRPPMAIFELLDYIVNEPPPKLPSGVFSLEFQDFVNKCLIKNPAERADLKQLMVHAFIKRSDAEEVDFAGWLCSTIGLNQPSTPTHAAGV
Chain of Protein Serine/Threonine Kinase, MAPK3 (ERK1) (P27361 whole entry): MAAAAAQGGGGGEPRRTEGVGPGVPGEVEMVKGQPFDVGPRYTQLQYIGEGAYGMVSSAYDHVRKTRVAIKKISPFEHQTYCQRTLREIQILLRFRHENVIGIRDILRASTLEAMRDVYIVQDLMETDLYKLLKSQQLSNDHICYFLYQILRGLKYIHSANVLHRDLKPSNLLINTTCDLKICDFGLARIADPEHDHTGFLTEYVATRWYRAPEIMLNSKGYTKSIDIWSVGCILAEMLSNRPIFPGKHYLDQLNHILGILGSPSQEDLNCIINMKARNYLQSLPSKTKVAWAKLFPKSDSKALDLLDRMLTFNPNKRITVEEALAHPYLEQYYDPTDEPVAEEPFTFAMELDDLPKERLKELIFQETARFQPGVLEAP

## C[C@@H]1CC[C@@]2(OC1)O[C@H]1C[C@H]3[C@@H]4CC[C@@H]5C[C@@H](O)CC[C@]5(C)[C@H]4CC[C@]3(C)[C@H]1[C@@H]2C [Smilagenin, smilagenin]
[1]
  Effect (%): NS (NS = No significant response. Significance was taken as ≧30% stimulation or inhibition)
[2]
  Effect (%): NS (NS = No significant response. Significance was taken as ≧30% stimulation or inhibition)
[3]
  Effect (%): NS (NS = No significant response. Significance was taken as ≧30% stimulation or inhibition)
[4]
  Effect (%): NS (NS = No significant response. Significance was taken as ≧30% stimulation or inhibition)
GABAA Muscimol, Central
  Effect (%): NS (NS = No significant response. Significance was taken as ≧30% stimulation or inhibition)
Potassium Channel [KA]
  Effect (%): NS (NS = No significant response. Significance was taken as ≧30% stimulation or inhibition)
GDNF mRNA; smilagenin exposure 0.167 h
  Relative amount of GDNF mRNA (% of control at 0.167 h): 119.9 ± 19.8 % of control at 0.167 h
GDNF mRNA; smilagenin exposure 2 h
  Relative amount of GDNF mRNA (% of control at 0.167 h): 581.6 ± 66.3 % of control at 0.167 h
GDNF mRNA; smilagenin exposure 24 h
  Relative amount of GDNF mRNA (% of control at 0.167 h): 3319.1 ± 830.3 % of control at 0.167 h
GDNF mRNA; smilagenin exposure 48 h
  Relative amount of GDNF mRNA (% of control at 0.167 h): 2185.3 ± 304.1 % of control at 0.167 h
GDNF mRNA; smilagenin exposure 72 h
  Relative amount of GDNF mRNA (% of control at 0.167 h): 1413.5 ± 352.1 % of control at 0.167 h
[5]
  Effect (%): NS (NS = No significant response. Significance was taken as ≧30% stimulation or inhibition)
Functional assay
  Effect (%): NS (NS = No significant response. Significance was taken as ≧30% stimulation or inhibition)
MPTP-lesioned macaques; baseline of the smilagenin group, before dosing
  Median parkinsonian disability post-MPTP administration: 47.17
MPTP-lesioned macaques; smilagenin 20 mg/kg/day p.o., 18 weeks, MPTP vehicle group 41.67
  Median parkinsonian disability at week 18: 27.00^###

## C[C@H]1CC[C@@]2(OC1)O[C@H]1C[C@H]3[C@@H]4CC[C@@H]5C[C@@H](O)CC[C@]5(C)[C@H]4CC[C@]3(C)[C@H]1[C@@H]2C [Sarsasapogenin, sarsasapogenin]
Pmn mice; 0.03 μg/kg/day oral, lowest tested dosage
  Progression of the motor neurone degeneration: does not delay the progression of the motor neurone degeneration
Pmn mice; 0.3 μg/kg/day oral from day 10 after birth, p<0.001
  Amplitude of CMAP (motor function): delayed the deterioration of motor function
Pmn mice; 0.3 μg/kg/day oral, after symptoms manifest, p=0.006
  Increase of survival (lifespan) of pmn mice compared to control: up to 62%
Pmn mice; 0.3 μg/kg/day oral, p=0.02 vs pmn control
  Rotarod and grid test performances: significantly delayed the deterioration in the rotarod and grid test performances
[6]
  Phosphorylated CREB (Arbitary units): 1.342 ± 0.084^++ Arbitary units
Oestrogen
  Effect (%): NS (NS = No significant response. Significance was taken as ≧30% stimulation or inhibition)
Progesterone
  Effect (%): NS (NS = No significant response. Significance was taken as ≧30% stimulation or inhibition)
